# Experimental data reported in EPA's ToxValDB 9.5.
# Values joined by “and” are separate entries in the source; they are usually repeats but may differ in a detail not shown here. Equal entries are not always repeated.
# Legend:
# Rattus norvegicus [1] = test system: Rattus norvegicus
# Rattus norvegicus [2] = details: M/F
# Rattus norvegicus [3] = details: oral
# Rattus norvegicus [4] = details: short-term
# Mus musculus [5] = details: acute, duration: 1 hours, M
# Rattus norvegicus [6] = details: for LC50: acute, inhalation; for LOAEL / NOAEL: subchronic, oral
# Mus musculus [7] = details: subchronic, duration: 13 weeks, oral, B6C3F1
# Oryctolagus sp. = details: acute; dermal; occlusive
# [8] = duration: 3 days, injection, subcutaneous, F, Sprague-Dawley, uterus: absolute blotted uterine weight
# [9] = duration: 4 days, oral, gavage, F, Wistar, female reproductive system: vaginal cornification + uterus: uterine wet weight (relative)
# [10] = duration: 4 days, oral, gavage, F, Wistar, uterus: uterine dry weight (relative)
# [11] = duration: 10 days, oral, gavage, M, BrlHan:WIST, body weight + spontaneous locomotion
# [12] = duration: 10 days, oral, gavage, M, BrlHan:WIST, male accessory sex gland: relative bulbourethral gland weight in the presence of TP
# [13] = duration: 28 days, oral, gavage, F, Crj:CD, kidney: kidney weight
# [14] = duration: 28 days, oral, gavage, F, Crj:CD, liver: liver weight + thymus: serum T3
# [15] = duration: 28 days, oral, gavage, M, Crj:CD, body weight + brain: brain weight + food consumption + liver: liver weight + testis: testes weight + thymus: serum T3 + thymus: serum T4 + …
# [16] = oral, gavage, inhibition of acetic acid-induced writhing response
# [17] = reproduction developmental, inhalation, increased liver weight in p1 males
# [18] = duration: 13 weeks, drinking water, Fischer 344
# [19] = duration: 13 weeks, drinking water, Wistar
# [20] = duration: 89 days, gavage, Sprague-Dawley
# [21] = subchronic, duration: 90 days, oral, gavage, increased liver weight
smiles,measurement,setting,value
CCOP(=S)(OCC)SCSCC [Phorate],NOAEL,"Rattus norvegicus [1]; subchronic, duration: 13 weeks, oral, diet, Cholinesterase: Inhibition",0.033 mg/kg-day
O=C1C[C@@H]2OCC=C3CN4CC[C@]56c7ccccc7N1[C@H]5[C@H]2[C@H]3C[C@H]46 [Strychnine],LOAEL,"Rattus norvegicus [2]; subchronic, oral, toxicity/histopathology",2.5 mg/kg-day
same,LOAEL,"Rattus norvegicus [1]; short-term, duration: 28 days, oral, gavage, Unspecified: Histopathology + Unspecified: Toxicity",2.5 mg/kg-day
CCOP(=S)(OCC)Oc1cc(Cl)c(SC)cc1Cl [Chlorthiophos],NOAEL,"Rattus norvegicus [1]; chronic, duration: 2 years, oral, diet, None Observed",0.08 mg/kg-day
Oc1ccc(Cc2ccc(O)cc2)cc1 [Bis(4-hydroxyphenyl)methane],NOEL,"Rattus norvegicus [3]; short-term, duration: 28 days, gavage, F, CD(SD), Clinical Observation: Decreased locomotor activity Soiled fur Soft stool + Body Weight Changes: decrease + Food Consumption: decrease + …",< 20 mg/kg-day
same,NOEL,"Rattus norvegicus [3]; short-term, duration: 28 days, gavage, M, CD(SD), Clinical Observation: Decreased locomotor activity Soiled fur Soft stool + Body Weight Changes: decrease + Food Consumption: decrease + …",20 mg/kg-day
same,LOEL,"Rattus norvegicus [4]; duration: 3 days, injection, subcutaneous, F, Crj:CD, uterus: uterine dry weight (absolute) + uterus: uterine dry weight (relative) + uterus: uterine wet weight (absolute) + uterus: uterine wet …",100 mg/kg-day
same,LOEL,Rattus norvegicus [4]; [8],200 mg/kg-day
same,NOEL,Rattus norvegicus [4]; [8],20 mg/kg-day
same,LOEL,Rattus norvegicus [4]; [9],100 mg/kg-day
same,NOEL,Rattus norvegicus [4]; [9],50 mg/kg-day
same,LOEL,Rattus norvegicus [4]; [10],200 mg/kg-day
same,NOEL,Rattus norvegicus [4]; [10],100 mg/kg-day
same,LOEL,"Rattus norvegicus [4]; duration: 5 days, injection, subcutaneous, F, Wistar, uterus: uterine dry weight (relative)",0.5 mg/day
same,LOEL,Rattus norvegicus [4]; [11],1000 mg/kg-day
same,NOEL,Rattus norvegicus [4]; [11],200 mg/kg-day
same,NOEL,"Rattus norvegicus [4]; duration: 10 days, oral, gavage, M, BrlHan:WIST, body weight in the presence of TP + body weight the absence of TP + male accessory sex gland: relative bulbourethral gland weight in the …",1000 mg/kg-day
same,NOEL,"Rattus norvegicus [4]; duration: 10 days, oral, gavage, M, BrlHan:WIST, male accessory sex gland: BC/LA weight (relative) + male accessory sex gland: Cowper's gland weight (relative) + male accessory sex gland: …",1000 mg/kg-day
same,LOEL,Rattus norvegicus [4]; [12],200 mg/kg-day
same,NOEL,Rattus norvegicus [4]; [12],50 mg/kg-day
same,LOEL,"Rattus norvegicus [4]; duration: 28 days, oral, gavage, F, Crj:CD, body weight + brain: brain weight + food consumption + thymus: serum T4",20 mg/kg-day
same,LOEL,Rattus norvegicus [4]; [13],100 mg/kg-day
same,NOEL,Rattus norvegicus [4]; [13],20 mg/kg-day
same,LOEL,Rattus norvegicus [4]; [14],500 mg/kg-day
same,NOEL,Rattus norvegicus [4]; [14],100 mg/kg-day
same,LOEL,Rattus norvegicus [4]; [15],500 mg/kg-day
same,NOEL,Rattus norvegicus [4]; [15],100 mg/kg-day
same,LOEL,"Mus musculus [5]; dermal, inhibition of arachidonic acid-induced ear edema",0.25 mg/ear
same,LOEL,Mus musculus [5]; [16],25 mg/kg-day
same,NOEL,Mus musculus [5]; [16],12.5 mg/kg-day
"Clc1ccc(Cl)cc1 [1,4-Dichlorobenzene]",NOEL,"Rattus norvegicus [3]; subchronic, duration: 13 weeks, gavage, M/F, Fischer 344, Deaths + Clinical Observation: Tremors Poor motor response Ocular discharge + Body Weight Changes: decrease + Urinalysis: Coproporphyrin …",< 300 mg/kg-day
same,LOAEL,Rattus norvegicus [2]; [17],902 mg/m3
same,NOAEL,Rattus norvegicus [2]; [17],301 mg/m3
same,NOAEL,"Rattus norvegicus [1]; chronic, inhalation, intermittent, Liver: Increased weight in male parents",75 mg/m3
c1ccncc1 [Pyridine],NOEL,"Rattus norvegicus [3]; subchronic, duration: 13 weeks, water, M/F, Fischer 344, Deaths + Body Weight Changes: decrease + Food Consumption: decrease + Hematology: RBC decrease, Hct decrease, Hgb decrease, Plt increase + …",< 7.6 mg/kg-day
same,LC50,Rattus norvegicus [6],< 12900 mg/m3
same,LC50,Rattus norvegicus [6]; Crl:CD(SD) BR,≥ 15900 mg/m3 and ≤ 19400 mg/m3
same,LC50,Rattus norvegicus [6]; Sprague-Dawley,29200 mg/m3 and 29100 mg/m3
same,LOAEL,Rattus norvegicus [6]; [18],38 mg/kg-day
same,NOAEL,Rattus norvegicus [6]; [18],15.2 mg/kg-day
same,LOAEL,Rattus norvegicus [6]; [19],38 mg/kg-day
same,NOAEL,Rattus norvegicus [6]; [19],15.2 mg/kg-day
same,LOAEL,"Rattus norvegicus [6]; duration: 13 weeks, gavage, Fischer 344",12.5 mg/kg-day
same,LOAEL,Rattus norvegicus [6]; [20],10 mg/kg-day
same,NOAEL,Rattus norvegicus [6]; [20],1 mg/kg-day
same,LOAEL,Mus musculus [7]; drinking water,26.5 mg/kg-day
same,NOAEL,Mus musculus [7]; drinking water,13.2 mg/kg-day
same,LOAEL,Mus musculus [7]; gavage,25 mg/kg-day
same,LD50,Oryctolagus sp.,≥ 1000 mg/kg and ≤ 2000 mg/kg
same,LOAEL,Rattus norvegicus [2]; [21],10 mg/kg-day
same,NOAEL,Rattus norvegicus [2]; [21],1 mg/kg-day
same,NOAEL,"Rattus norvegicus [1]; subchronic, duration: 90 days, oral, gavage, Liver: Increased relative weight + Liver: Increased weight",1 mg/kg-day
